Test results from US20130053372A1, “5-HT RECEPTOR MODULATORS” (Cambridge Enterprise Limited, priority 2010, published 2013).
Counter-ions that a name gives are not always drawn.

Experiments:
[1] = system: intralobar pulmonary arteries from hypoxic mice; experiment: Myography of pulmonary arteries: vasoreactivity to 5-HT; set-up: species or system Mice (C57B/6J); settings: 15 mg/kg/day
Method: (§1) Lung sections from 5 mice for each group were studied. Approximately 150 arteries from each lung section (˜750 arteries in total for each group) were assessed. Right Ventricular Hypertrophy: Right ventricular hypertrophy (RVH) was assessed by weight measurement of the right ventricular free wall (RV) and left ventricle plus septum (LV+S). The ratio expressed is RV/LV+S. RVH measurements from 6 to 8 mice for each group were assessed. Myography: Small pulmonary arteries (PAs) of ˜350 μm internal diameter (i.d.) were set up on wire myographs as described in MacLean M. R. et al. J Pharmacol Exp Ther. 2005, 313, 539-548. Briefly, PAs from normoxic mice were set up at tensions equivalent to their mean in vivo right ventricular pressure (RVP) (12-15 mmHg), whereas PAs from hypoxic mice were set up at tensions equivalent to the elevated in vivo mean pressures observed after exposure to hypoxia (25-30 mmHg). After a 45-min equilibration period, the response to 50 mM KCl was determined. Cumulative response curves were constructed in the presence and absence of the antagonist which was allowed a 45-min equilibrium period before constructing the curves.

[2] = system: chronically hypoxic murine model of pulmonary arterial hypertension (PAH); experiment: Effect on development of hypoxia-induced pulmonary hypertension (haemodynamics, right ventricular hypertrophy); assay type: in vivo, Mice (C57B/6J); settings: mice
Method: Protocol for the Determination of the Effect on the Development of Hypoxia-Induced Pulmonary Hypertension.
Mice (C57B/6J, male, 2 months) were exposed to 14 days of hypobaric hypoxia (equivalent to 10% O2) or normoxia, as described in MacLean, M. R. et al. Circulation 2008, 117, 2928-2937 and MacLean, M. R. et al. Circulation 2004,109, 2150-2155. Mice were dosed either with vehicle (dH2O) or 82 (15 mg/kg/day) for 14 days. Haemodynamic Measurements: Heart rate, right ventricular pressure and systemic arterial pressure were measured and analysed as described in MacLean, M. R. et al. Circulation 2008, 117, 2928-2937 and MacLean, M. R. et al. Circulation 2004,109, 2150-2155. Briefly, right ventricular pressure was measured via transdiaphragmatic right heart catheterisation and systemic arterial pressure was measured via cannulation of the left common carotid artery. Lung Histology: Sagittal sections of lung were elastica-Van Gieson stained and microscopically assessed for the muscularisation of pulmonary arteries (<80 μm external diameter) in a blinded fashion as described in MacLean, M. R. et al. Circulation 2008, 117, 2928-2937 and MacLean, M. R. et al. Circulation 2004,109, 2150-2155. Remodelled arteries were confirmed by the presence of a double elastic laminae.
as §1
The effects of 82 on a chronically hypoxic murine model of pulmonary arterial hypertension (PAH) were assessed. Four small groups of n=3 or 4 were used. The results are illustrated in FIGS. 13-17 (see also description of figures, above).

rat r5-HT1B receptors = biological target: T1, rat r5-HT1B receptors (Rattus norvegicus, UniProt P28564); experiment: Binding affinity at rat r5-HT1B receptors, rat cerebral cortex membrane binding (RBA); settings: value in parentheses; monohydrochloride salt
T1 construct: from tissue
T1 sequence (P28564 whole entry): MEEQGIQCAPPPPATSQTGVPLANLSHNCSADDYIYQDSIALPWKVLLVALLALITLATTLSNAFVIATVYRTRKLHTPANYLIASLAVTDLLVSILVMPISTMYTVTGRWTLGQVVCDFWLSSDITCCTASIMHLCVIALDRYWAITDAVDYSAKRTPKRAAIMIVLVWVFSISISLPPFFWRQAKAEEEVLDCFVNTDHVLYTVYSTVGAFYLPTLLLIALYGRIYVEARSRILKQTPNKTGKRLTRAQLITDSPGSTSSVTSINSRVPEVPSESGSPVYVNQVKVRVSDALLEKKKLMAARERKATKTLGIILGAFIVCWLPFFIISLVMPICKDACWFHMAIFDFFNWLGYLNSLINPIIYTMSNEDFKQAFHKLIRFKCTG
Method: Binding Protocol for Determination of Affinity at rat r5-HT 1B Receptors (RBA)
This binding affinity protocol was performed according to standard conditions disclosed in Eur. J. Pharmacol. 1985, 118, 1-12.

CN1CCN(c2nc(N3CCN(c4ccccc4)C3=O)cc3ccoc23)CC1 [Example 82, 1-(7-(4-Methylpiperazin-1-yl)furo[2,3-c]pyridin-5-yl)-3-phenylimidazolidin-2-one hydrochloride]
effect on the increase in contractility to 5HT in intralobar pulmonary arteries from hypoxic mice [1]: no effect
effect on heart rate (HR) ([2]; 15 mg/kg/day): no significant effect
effect on mean systemic arterial pressure (mSAP) ([2]; 15 mg/kg/day): no significant effect
hypoxia-induced increases in systolic right ventricular pressure (sRVP) ([2]; 15 mg/kg/day for 14 days, hypobaric hypoxia): significantly attenuated
hypoxia-induced right ventricular hypertrophy (RVH) ([2]; 15 mg/kg/day for 14 days, hypobaric hypoxia, RV/LV+S): significantly attenuated
IC50 (rat r5-HT1B receptors): 110 nM
